Earlier results on 4 compounds are cited in publication PMC9456187, “The Ambivalence of Connexin43 Gap Peptides in Cardioprotection of the Isolated Heart against Ischemic Injury” (International Journal of Molecular Sciences, 2022).

This data set concerns ischemic preconditioning (IPC) cardioprotection. As to conditions: cited from earlier work; for Effect on cardioprotection by preconditioning (in words): ref [21]; for Inhibition of the triggering step of IPC (in words): ref [21],[40],[41],[42],[43]. The procedure:
IPC is a powerful and robust cardioprotective mechanism. In the current study, we wanted to examine if IPC in combination with Gap peptides would interfere with infarct size limitation. […] Peptides were added prior to and during three cycles of ischemic preconditioning pretreatment before prolonged global ischemia but not at the following reperfusion. When combining Gap26 and ischemic preconditioning, the protection agains ... || Through the years, multiple attempts have been made to use cardioprotection by IPC or pharmacological interventions that mimic IPC to reduce infarct size in the clinic. So far, this has been without success when carried through to large phase 3 clinical studies. Adaption to stress is a beneficial endogenous mechanism closely related to injury mechanisms.

SMILES strings stand for the structures.

Regarding `CCCN(CCC)S(=O)(=O)c1ccc(C(=O)O)cc1` [probenecid], the “Effect on cardioprotection by preconditioning (in words)” value is reported as “could inhibit this effect”.

On to `COc1ccc2[nH]cc(CCNC(C)=O)c2c1` [melatonin], for which the “Inhibition of the triggering step of IPC (in words)” value (from here on “Inhibition”) was “inhibit the triggering step of IPC”. With `CC(=O)Oc1ccccc1C(=O)O` [acetylsalicylic acid (aspirin), acetylsalicylic acid], the “Inhibition” value is recorded as “inhibit the triggering step of IPC”. Take `O=c1[nH]c(=O)c2[nH]c(=O)[nH]c2[nH]1` [uric acid]: the “Inhibition” value is listed as “inhibit the triggering step of IPC” and the “Effect on cardioprotection by preconditioning (in words)” value was “blocks cardioprotection by preconditioning”.
